Measured values published in PubChem BioAssay AID2060622 (Molecular Pharmacology Branch, DTP, NCI, 2025).

System: 242566-281-R-J2-PDC complex spheroid viability
Experiment: Anticancer human tumor 242566-281-R-J2-PDC patient-derived pancreatic carcinoma cell line growth inhibition [CLK]
Settings: for IC50: curve of first compound; for viability, T/C: stronger effect = lower value; active = viability on the fitted dose curve at most 10% of control; inactive = the rest
Outline: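 Multi-cell-type spheroids combined patient-derived tumor cells with HUVEC endothelial cells and human mesenchymal stem cells. Paired agents were dosed in half-log steps down from about clinical Cmax, or from 10 microM where Cmax was unknown.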

[1] = second compound 0.0316 µM, first compound 0.0316 µM
[2] = second compound 0.0316 µM, first compound 0.1 µM
[3] = second compound 0.0316 µM, first compound 0.316 µM
[4] = second compound 0.0316 µM, first compound 1 µM
[5] = second compound 0.0316 µM, first compound 3.16 µM
[6] = second compound 0.0316 µM, first compound 10 µM
[7] = second compound 0.1 µM, first compound 0.0316 µM
[8] = second compound 0.1 µM, first compound 0.1 µM
[9] = second compound 0.1 µM, first compound 0.316 µM
[10] = second compound 0.1 µM, first compound 1 µM
[11] = second compound 0.1 µM, first compound 3.16 µM
[12] = second compound 0.1 µM, first compound 10 µM
[13] = second compound 0.316 µM, first compound 0.0316 µM
[14] = second compound 0.316 µM, first compound 0.1 µM
[15] = second compound 0.316 µM, first compound 0.316 µM
[16] = second compound 0.316 µM, first compound 1 µM
[17] = second compound 0.316 µM, first compound 3.16 µM
[18] = second compound 0.316 µM, first compound 10 µM
[19] = second compound 1 µM, first compound 0.0316 µM
[20] = second compound 1 µM, first compound 0.1 µM
[21] = second compound 1 µM, first compound 0.316 µM
[22] = second compound 1 µM, first compound 1 µM
[23] = second compound 1 µM, first compound 3.16 µM
[24] = second compound 1 µM, first compound 10 µM
[25] = second compound 3.16 µM, first compound 0.0316 µM
[26] = second compound 3.16 µM, first compound 0.1 µM
[27] = second compound 3.16 µM, first compound 0.316 µM
[28] = second compound 3.16 µM, first compound 1 µM
[29] = second compound 3.16 µM, first compound 3.16 µM
[30] = second compound 3.16 µM, first compound 10 µM
[31] = second compound 10 µM, first compound 0.0316 µM
[32] = second compound 10 µM, first compound 0.1 µM
[33] = second compound 10 µM, first compound 0.316 µM
[34] = second compound 10 µM, first compound 1 µM
[35] = second compound 10 µM, first compound 3.16 µM
[36] = second compound 10 µM, first compound 10 µM
[37] = second compound 0.0316 µM, first compound 0.00316 µM
[38] = second compound 0.0316 µM, first compound 0.01 µM
[39] = second compound 0.1 µM, first compound 0.00316 µM
[40] = second compound 0.1 µM, first compound 0.01 µM
[41] = second compound 0.316 µM, first compound 0.00316 µM
[42] = second compound 0.316 µM, first compound 0.01 µM
[43] = second compound 1 µM, first compound 0.00316 µM
[44] = second compound 1 µM, first compound 0.01 µM
[45] = second compound 3.16 µM, first compound 0.00316 µM
[46] = second compound 3.16 µM, first compound 0.01 µM
[47] = second compound 10 µM, first compound 0.00316 µM
[48] = second compound 10 µM, first compound 0.01 µM
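Also: spheroids exposed to compounds for 7 days before readout.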
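For viability, T/C in this document: 100% = DMSO vehicle control wells.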

CC(CO)NC(=O)c1cc(-c2ccc(Cl)cc2)nn(-c2cnn(C)c2)c1=O (stereo not drawn) + CNC(=O)c1ccc(Nc2nc(OC3CCCC3)c3c(-c4ccc5nc(C)oc5c4)c[nH]c3n2)c(OC)c1
> 10000 nM: IC50 (second compound 0.0316 µM) | IC50 (second compound 0.1 µM) | IC50 (second compound 0.316 µM) | IC50 (second compound 1 µM) | IC50 (second compound 3.16 µM) | IC50 (second compound 10 µM)
inactive: viability, T/C [1] 112% | viability, T/C [2] 105% | viability, T/C [3] 103% | viability, T/C [4] 124% | viability, T/C [5] 110% | viability, T/C [6] 104% | viability, T/C [7] 105% | viability, T/C [8] 107% | viability, T/C [9] 93% | viability, T/C [10] 102% | viability, T/C [11] 103% | viability, T/C [12] 96.3% | viability, T/C [13] 96.1% | viability, T/C [14] 90.7% | viability, T/C [15] 83.1% | viability, T/C [16] 95.9% | viability, T/C [17] 101% | viability, T/C [18] 86% | viability, T/C [19] 76% | viability, T/C [20] 65% | viability, T/C [21] 75.6% | viability, T/C [22] 79.2% | viability, T/C [23] 86.2% | viability, T/C [24] 89.4% | viability, T/C [25] 60.1% | viability, T/C [26] 62.5% | viability, T/C [27] 59.1% | viability, T/C [28] 58.9% | viability, T/C [29] 63% | viability, T/C [30] 69.2% | viability, T/C [31] 55.6% | viability, T/C [32] 55.8% | viability, T/C [33] 54.1% | viability, T/C [34] 58.8% | viability, T/C [35] 62.7% | viability, T/C [36] 70.2%

CC(Nc1ccc2c(c1)OCCn1cc(N3C(=O)OCC3C(F)F)nc1-2)C(N)=O (stereo not drawn) + CNC(=O)c1ccc(Nc2nc(OC3CCCC3)c3c(-c4ccc5nc(C)oc5c4)c[nH]c3n2)c(OC)c1
690 nM: IC50 (second compound 0.316 µM)
1770 nM: IC50 (second compound 0.1 µM)
2140 nM: IC50 (second compound 0.0316 µM)
92.4 nM: IC50 (second compound 1 µM)
inactive: viability, T/C [1] 84.6% | viability, T/C [2] 91.4% | viability, T/C [3] 75.9% | viability, T/C [4] 62.4% | viability, T/C [5] 44.4% | viability, T/C [6] 30.6% | viability, T/C [7] 100% | viability, T/C [8] 96.5% | viability, T/C [9] 70.4% | viability, T/C [10] 62.2% | viability, T/C [11] 40.3% | viability, T/C [12] 28.2% | viability, T/C [13] 82.3% | viability, T/C [14] 77.6% | viability, T/C [15] 59.6% | viability, T/C [16] 44% | viability, T/C [17] 32.8% | viability, T/C [18] 21.6% | viability, T/C [19] 63.9% | viability, T/C [20] 47.2% | viability, T/C [21] 38.5% | viability, T/C [22] 26.8% | viability, T/C [23] 19.8% | viability, T/C [24] 14.2% | viability, T/C [25] 44.4% | viability, T/C [26] 32.9% | viability, T/C [27] 27.5% | viability, T/C [28] 22.8% | viability, T/C [29] 15.7% | viability, T/C [30] 11.6% | viability, T/C [31] 41% | viability, T/C [32] 33.6% | viability, T/C [33] 28.2% | viability, T/C [34] 20.3% | viability, T/C [35] 15.1% | viability, T/C [36] 10.6%
< 31.6 nM: IC50 (second compound 3.16 µM) | IC50 (second compound 10 µM)

CCN1CCN(Cc2ccc(Nc3ncc(F)c(-c4cc(F)c5nc(C)n(C(C)C)c5c4)n3)nc2)CC1 + CNC(=O)c1ccc(Nc2nc(OC3CCCC3)c3c(-c4ccc5nc(C)oc5c4)c[nH]c3n2)c(OC)c1
> 1000 nM: IC50 (second compound 0.0316 µM) | IC50 (second compound 0.1 µM) | IC50 (second compound 0.316 µM) | IC50 (second compound 1 µM) | IC50 (second compound 3.16 µM) | IC50 (second compound 10 µM)
inactive: viability, T/C [37] 103% | viability, T/C [38] 106% | viability, T/C [1] 92% | viability, T/C [2] 126% | viability, T/C [3] 136% | viability, T/C [4] 154% | viability, T/C [39] 76.5% | viability, T/C [40] 109% | viability, T/C [7] 95.7% | viability, T/C [8] 104% | viability, T/C [9] 122% | viability, T/C [10] 153% | viability, T/C [41] 91.6% | viability, T/C [42] 98% | viability, T/C [13] 79.2% | viability, T/C [14] 117% | viability, T/C [15] 125% | viability, T/C [16] 156% | viability, T/C [43] 74.5% | viability, T/C [44] 86.8% | viability, T/C [19] 84.8% | viability, T/C [20] 96.2% | viability, T/C [21] 134% | viability, T/C [22] 142% | viability, T/C [45] 63.2% | viability, T/C [46] 61% | viability, T/C [25] 72.1% | viability, T/C [26] 85.7% | viability, T/C [27] 118% | viability, T/C [28] 123% | viability, T/C [47] 55.1% | viability, T/C [48] 59.8% | viability, T/C [31] 75.4% | viability, T/C [32] 80.5% | viability, T/C [33] 101% | viability, T/C [34] 124%

COc1c(OCCCN2CCOCC2)ccc2c3n(c(=NC(=O)c4cnc(N)nc4)nc12)CCN3 + CNC(=O)c1ccc(Nc2nc(OC3CCCC3)c3c(-c4ccc5nc(C)oc5c4)c[nH]c3n2)c(OC)c1
active: viability, T/C [22] 10.9% | viability, T/C [28] 10.2% | viability, T/C [34] 10.2%
inactive: viability, T/C [37] 104% | viability, T/C [38] 86.1% | viability, T/C [1] 64.7% | viability, T/C [2] 31.1% | viability, T/C [3] 19.5% | viability, T/C [4] 14.2% | viability, T/C [39] 72.9% | viability, T/C [40] 98.3% | viability, T/C [7] 64.4% | viability, T/C [8] 29.2% | viability, T/C [9] 18.8% | viability, T/C [10] 14.4% | viability, T/C [41] 81.4% | viability, T/C [42] 70.9% | viability, T/C [13] 48.8% | viability, T/C [14] 23.9% | viability, T/C [15] 15.1% | viability, T/C [16] 10.7% | viability, T/C [43] 61.5% | viability, T/C [44] 47% | viability, T/C [19] 31.2% | viability, T/C [20] 14.6% | viability, T/C [21] 9.5% | viability, T/C [45] 42.9% | viability, T/C [46] 33.5% | viability, T/C [25] 24.6% | viability, T/C [26] 12.5% | viability, T/C [27] 9.35% | viability, T/C [47] 39.3% | viability, T/C [48] 32.5% | viability, T/C [31] 25% | viability, T/C [32] 11.4% | viability, T/C [33] 8.81%
< 3.16 nM: IC50 (second compound 3.16 µM) | IC50 (second compound 10 µM)
29 nM: IC50 (second compound 0.316 µM)
52 nM: IC50 (second compound 0.1 µM)
50.9 nM: IC50 (second compound 0.0316 µM)
8.6 nM: IC50 (second compound 1 µM)
